In patent publication US11643439B2, “Multi-target compound with anticoagulation and antiplatelet activity, preparation method therefor, and use thereof” (SHAANXI MICOT TECHNOLOGY LIMITED COMPANY, priority 2015, dated 2023):
Marks after values point to notes of the source that are not given here.

What was measured:
platelet aggregation = assay: Platelet aggregation in rabbits, single intravenous administration; assay type: in vivo, rabbit
Method: (§1) 1. Grouping and administration: 48 Rabbits were randomly divided into 6 groups, 8 rabbits per group. 1) Sham operation group (NS): Intravenous injection of the same volume of physiological saline; 2) positive control bivalirudin group (6 mg/kg); 3) positive control enoxaparin group (200 U/kg); 4) Low dose group of polypeptide 2 (3.0 mg/kg); 5) Medium dose group of polypeptide 2 (6.0 mg/kg); 6) High dose group of polypeptide 2 (12.0 mg/kg). Polypeptide 2 was administered by single intravenous administration. According to the body weight in kilograms of the rabbits, the sample was dissolved in 2 mL of physiological saline for single bolus injection. The sham operation group was administered with the same volume of physiological saline.
3.1 Platelet aggregation rate: 2.7 ml of blood was taken from the femoral vein, rapidly injected into a centrifuge tube containing 0.3 ml of 3.8% sodium citrate solution, and fully mixed well. The resulted blood samples were centrifuged at 810 rpm (100 g) for 8 min to obtain PRP, which was taken out and centrifuged at 3500 rpm (1863 g) for 8 min to obtain PPP, which was used to determine platelet aggregation.
Blood samples were taken at a point before administration (0 min), and at points of administration for 5 min and 15 min, respectively, to determine the platelet aggregation rate, which was used to calculate the inhibitory rate of platelet aggregation with a calculation equation as follows: […]

[1] = test system: blood coagulation function; assay: TT in rabbits, single intravenous administration; assay type: in vivo, rabbit
Method: as §1
3.2 Determination of blood coagulation function: Blood samples were taken and the blood function (PT, TT, APTT) was determined at 0 min before administration, at points of 5 min and 15 min after administration, using a platelet-aggregation coagulation factor analyzer. Blood samples were centrifuged at 3510 rpm for 8 min to obtain platelet poor plasma (PPP). Reagent reconstruction and preservation were performed according to the operation requirements of the kit. Immediately after each blood sample was placed into a test cup and then added with PT. TT and APTT reagents, the test was started. After the test was completed, results were recorded.

[2] = test system: blood coagulation function; assay: PT in rats, intravenous maintenance administration; assay type: in vivo, rat
Method: 160 Rats were randomly divided into groups, 5 to 10 rats per group.
According to the body weight in kilograms of the rats, the first dose of a drug was dissolved in 2 mL of physiological saline for single bolus injection. The maintaining dose of drug was dissolved in 9 ml of physiological saline, and placed in a double-channel micro-injection pump, which was dripped off within 90 minutes at a dripping speed of 0.1 ml/min. The sham operation group was administered with the same volume of physiological saline.
The rats were fasted with free access to water overnight before the experiment.
The blood samples were taken before administration, administration for 60 minutes, and before termination of administration, respectively, to determine their activated partial thromboplastin time (APTT) and prothrombin time (PT). The blood samples were centrifuged at 3510 rpm for 8 minutes to obtain platelet poor plasma (PPP). Reagent reconstruction and preservation were performed according to the operation requirements of the kit. Immediately after each blood sample was placed into a test cup and then PT and APTT reagents were added, the test was started. After the test was completed, results were recorded.
5.1 Determination of blood coagulation function: The blood samples were taken 0 min before administration, administration for 60 minutes, and termination of administration, respectively, and then determined using a platelet-aggregation coagulation factor analyzer for the blood coagulation functions (PT. APTT) and ACT.

whole blood coagulation = assay: ACT in rabbits, single intravenous administration; assay type: in vivo, rabbit
Method: as §1
3.3 Determination of ACT: At 0 min before administration and at points of administration for 5 min and 15 min, the whole blood was taken, to which kaolin was added, and placed in a water bath at 37° C. to record the whole blood coagulation time.

[3] = single iv 6.0 mg/kg, Administration for 5 min
[4] = single iv 6.0 mg/kg, Administration for 15 min
[5] = single iv 6.0 mg/kg, Before administration
[6] = iv 0.08 + 0.325 (mg/kg + mg/kg/h)
[7] = iv 0.17 + 0.65 (mg/kg + mg/kg/h)
[8] = iv 0.35 + 1.3 (mg/kg + mg/kg/h)
[9] = single iv 6.0 mg/kg, After administration 5 min
[10] = single iv 6.0 mg/kg, After administration 15 min
[11] = single iv 3.0 mg/kg, Administration for 5 min
[12] = single iv 3.0 mg/kg, Administration for 15 min
[13] = single iv 12.0 mg/kg, Administration for 5 min
[14] = single iv 12.0 mg/kg, Administration for 15 min
[15] = single iv 3.0 mg/kg, Before administration
[16] = single iv 12.0 mg/kg, Before administration
[17] = iv 0.041 + 0.125 (mg/kg + mg/kg/h)
[18] = iv 0.125 + 0.375 (mg/kg + mg/kg/h)
[19] = iv 0.25 + 0.75 (mg/kg + mg/kg/h)
[20] = iv 0.5 + 1.25 (mg/kg + mg/kg/h)
[21] = iv 1.5 + 3.75 (mg/kg + mg/kg/h)
[22] = single iv 200 (U/kg), Administration for 5 min
[23] = single iv 200 (U/kg), Administration for 15 min
[24] = single iv 200 (U/kg), Before administration

Substance: Bivalirudin: Bivalirudin for Injection, Xi'an Xintong Pharmaceutical Research Co., Ltd.; positive control thrombin inhibitor
- inhibitory rate of platelet aggregation (platelet aggregation; [3]): 5.2 ± 5.8%
- inhibitory rate of platelet aggregation (platelet aggregation; [4]): 4.6 ± 6.0%
- TT [1, 3]: >180 s
- TT [1, 4]: >180 s
- TT [1, 5]: 22.4 ± 5.2 S
- PT Before administration [2, 6]: 10.42 ± 1.16
- PT Fold of change [2, 6]: 1.82 ± 0.24
- PT administration for 60 minutes [2, 6]: 18.95 ± 3.36
- PT Before administration [2, 7]: 11.16 ± 1.28
- PT Fold of change [2, 7]: 1.99 ± 0.78
- PT administration for 60 minutes [2, 7]: 21.85 ± 7.38
- PT Before administration [2, 8]: 11.73 ± 1.48
- PT Fold of change [2, 8]: 3.54 ± 1.45
- PT administration for 60 minutes [2, 8]: 42.58 ± 21.94
- PT Before administration ([2]; iv 0.5 + 2 (mg/kg + mg/kg/h)): 7.87 ± 1.93
- PT Fold of change ([2]; iv 0.5 + 2 (mg/kg + mg/kg/h)): 4.46 ± 1.47
- PT administration for 60 minutes ([2]; iv 0.5 + 2 (mg/kg + mg/kg/h)): 39.13 ± 7.30
- ACT (whole blood coagulation; [3]): 443.8 ± 35.3 s
- ACT (whole blood coagulation; [4]): 375.0 ± 24.1*^ s
- ACT fold of prolongation (whole blood coagulation; [9]): 1.5 ± 0.3
- ACT fold of prolongation (whole blood coagulation; [10]): 1.3 ± 0.4
- ACT (whole blood coagulation; [5]): 305.6 ± 24.0 s

Substance: D-Phe Pro Arg Pro Gly Gly Gly Gly Asn Gly Asp Phe Glu Glu Ile Pro Glu Glu Tyr Leu Glu Ala Ala Ala Lys Cys Har Gly Asp Trp Pro Cys [Polypeptide 2]
- inhibitory rate of platelet aggregation (platelet aggregation; [11]): 17.2 ± 6.7%
- inhibitory rate of platelet aggregation (platelet aggregation; [12]): 6.3 ± 7.0%
- inhibitory rate of platelet aggregation (platelet aggregation; [3]): 47.5 ± 5.8*^#¥& %
- inhibitory rate of platelet aggregation (platelet aggregation; [4]): 15.4 ± 6.0%
- inhibitory rate of platelet aggregation (platelet aggregation; [13]): 72.5 ± 6.2*#^¥&@ %
- inhibitory rate of platelet aggregation (platelet aggregation; [14]): 46.0 ± 6.5*^#¥&@ %
- TT [1, 15]: 21.0 ± 2.6 S
- TT [1, 5]: 22.3 ± 1.9 S
- TT [1, 16]: 21.8 ± 6.4 S
- PT Before administration [2, 17]: 10.74 ± 3.97
- PT Fold of change [2, 17]: 1.95 ± 1.27
- PT administration for 60 minutes [2, 17]: 18.95 ± 8.65
- PT Before administration [2, 18]: 11.21 ± 1.62
- PT Fold of change [2, 18]: 1.70 ± 0.34
- PT administration for 60 minutes [2, 18]: 19.00 ± 4.39
- PT Before administration [2, 19]: 11.19 ± 1.06
- PT Fold of change [2, 19]: 1.87 ± 0.50
- PT administration for 60 minutes [2, 19]: 20.82 ± 5.66
- PT Before administration [2, 20]: 10.58 ± 1.48
- PT Fold of change [2, 20]: 2.53 ± 0.73
- PT Before administration ([2]; iv 1 + 2.5 (mg/kg + mg/kg/h)): 10.53 ± 1.29
- PT Fold of change ([2]; iv 1 + 2.5 (mg/kg + mg/kg/h)): 5.57 ± 2.74
- PT administration for 60 minutes ([2]; iv 1 + 2.5 (mg/kg + mg/kg/h)): 56.65 ± 23.16
- PT Before administration [2, 21]: 11.98 ± 1.02
- PT Fold of change [2, 21]: 3.91 ± 1.89
- PT administration for 60 minutes [2, 21]: 46.64 ± 23.46
- ACT (whole blood coagulation; [11]): 352.5 ± 40.7^¥ s
- ACT (whole blood coagulation; [12]): 337.5 ± 27.8*^¥ s
- ACT fold of prolongation (whole blood coagulation; single iv 3.0 mg/kg, After administration 5 min): 1.0 ± 0.2
- ACT fold of prolongation (whole blood coagulation; single iv 3.0 mg/kg, After administration 15 min): 1.0 ± 0.1
- ACT (whole blood coagulation; [15]): 357.5 ± 27.7 s
- ACT (whole blood coagulation; [3]): 356.3 ± 35.3^¥ s
- ACT (whole blood coagulation; [4]): 324.4 ± 24.1*^¥ s
- ACT fold of prolongation (whole blood coagulation; [9]): 1.7 ± 0.7
- ACT fold of prolongation (whole blood coagulation; [10]): 1.6 ± 0.9
- ACT (whole blood coagulation; [5]): 232.5 ± 24.0 s
- ACT (whole blood coagulation; [13]): 505.6 ± 35.3*^¥&@ s
- ACT (whole blood coagulation; [14]): 418.1 ± 24.1*^¥ s
- ACT fold of prolongation (whole blood coagulation; single iv 12.0 mg/kg, After administration 5 min): 1.7 ± 0.6
- ACT fold of prolongation (whole blood coagulation; single iv 12.0 mg/kg, After administration 15 min): 1.4 ± 0.3
- ACT (whole blood coagulation; [16]): 315.0 ± 24.0 s

Substance: Enoxaparin
- inhibitory rate of platelet aggregation (platelet aggregation; [22]): 9.5 ± 6.2%
- inhibitory rate of platelet aggregation (platelet aggregation; [23]): 16.1 ± 6.5%
- TT [1, 22]: >180 s
- TT [1, 23]: >180 s
- TT [1, 24]: 20.7 ± 4.2 S
- PT Before administration ([2]; iv 30 + 45 u (U/kg+U/kg/h)): 10.23 ± 1.19
- PT Fold of change ([2]; iv 30 + 45 u (U/kg+U/kg/h)): 1.24 ± 0.14
- PT administration for 60 minutes ([2]; iv 30 + 45 u (U/kg+U/kg/h)): 12.70 ± 2.49
- PT Before administration ([2]; iv 30 + 120 u (U/kg+U/kg/h)): 9.93 ± 1.77
- PT Fold of change ([2]; iv 30 + 120 u (U/kg+U/kg/h)): 1.67 ± 0.42
- PT administration for 60 minutes ([2]; iv 30 + 120 u (U/kg+U/kg/h)): 16.17 ± 1.86
- PT Before administration ([2]; iv 60 + 60 u (U/kg+U/kg/h)): 9.53 ± 1.96
- PT Fold of change ([2]; iv 60 + 60 u (U/kg+U/kg/h)): 4.10 ± 5.56
- PT administration for 60 minutes ([2]; iv 60 + 60 u (U/kg+U/kg/h)): 31.39 ± 35.50
- PT Before administration ([2]; iv 60 + 240 u (U/kg+U/kg/h)): 10.28 ± 0.98
- PT Fold of change ([2]; iv 60 + 240 u (U/kg+U/kg/h)): 1.78 ± 0.30
- PT administration for 60 minutes ([2]; iv 60 + 240 u (U/kg+U/kg/h)): 18.21 ± 2.70
- PT Before administration ([2]; iv 90 + 120 u (U/kg+U/kg/h)): 9.63 ± 1.58
- PT Fold of change ([2]; iv 90 + 120 u (U/kg+U/kg/h)): 1.57 ± 0.21
- PT administration for 60 minutes ([2]; iv 90 + 120 u (U/kg+U/kg/h)): 14.88 ± 1.67
- ACT (whole blood coagulation; [22]): 915.0 ± 37.7 s
- ACT (whole blood coagulation; [23]): 610.7 ± 25.7 s
- ACT fold of prolongation (whole blood coagulation; single iv 200 (U/kg), After administration 5 min): 3.4 ± 1.1
- ACT fold of prolongation (whole blood coagulation; single iv 200 (U/kg), After administration 15 min): 2.2 ± 0.7
- ACT (whole blood coagulation; [24]): 285.0 ± 25.6 s
